Data on 8 molecules can be found in patent publication US6664411B2, “Heterocyclic compounds and their use in medicine; process for their preparation and pharmaceutical compositions containing them” (Dr. Reddy's Laboratories Limited, priority 1997, dated 2003).

One data set deals with T1, hPPARα (Homo sapiens, UniProt Q07869).
T1 construct: expressed in transfected cells; host or cells: HEK-293
T1 sequence (Q07869 239-466 limits assumed): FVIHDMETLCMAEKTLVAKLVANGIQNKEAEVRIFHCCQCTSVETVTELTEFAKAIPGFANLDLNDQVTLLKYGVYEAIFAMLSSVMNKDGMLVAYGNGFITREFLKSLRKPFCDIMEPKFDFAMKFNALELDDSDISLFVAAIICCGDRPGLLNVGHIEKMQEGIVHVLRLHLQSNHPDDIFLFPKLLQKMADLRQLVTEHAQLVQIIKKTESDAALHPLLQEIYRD
The data set can be described thus: Determination of hPPARα activity (GAL4 fusion luciferase reporter, HEK-293 cells). Format: cell-based. To be noted: Concentration 50 μM. On the procedure:
Ligand binding domain of hPPARα was fused to DNA binding domain of Yeast transcription factor GAL4 in eucaryotic expression vector. Using superfect (Qiagen, Germany) as transfecting reagent HEK-293 cells were transfected with this plasmid and a reporter plasmid harboring the luciferase gene driven by a GALA specific promoter. Compound was added at different concentrations after 42 hrs of transfection and incubated overnight. Luciferase activity as a function of compound binding/activation capacity of PPARα was measured using Packard Luclite kit (Packard, USA) in Top Count (Ivan Sadowski, Brendan Bell, Peter Broag and Melvyn Hollis. Gene. 1992. 118: 137-141; Superfect Transfection Reagent Handbook. February, 1997. Qiagen, Germany).

In data set [1] the test system is hypercholesterolemic Sprague Dawley rats. The data set can be described thus: Cholesterol lowering activity in hypercholesterolemic rat models. The class given is in vivo. The following applies: for LDL↓ (%): LDL calculated; for VLDL↓ (%): VLDL calculated. On the procedure:
Male Sprague Dawley rats (NIN stock) were bred in DRF animal house. Animals were maintained under 12 hour light and dark cycle at 25±1° C. Rats of 180-200 gram body weight range were used for the experiment. Animals were made hypercholesterolemic by feeding 2% cholesterol and 1% sodium cholate mixed with standard laboratory chow [National Institute of Nutrition (NIN), Hyderabad, India] for 6 days. Throughout the experimental period the animals were maintained on the same diet (Petit, D., Bonnefis, M. T., Rey, C and Infante, R. Effects of ciprofibrate on liver lipids and lipoprotein synthesis in normo- and hyperlipidemic rats. Atherosclerosis. 1988. 74: 215-225).
The test compounds were administered orally at a dose 0.1 to 30 mg/kg/day for 3 days. Control group was treated with vehicle alone (0.25% Carboxymethylcellulose; dose 10 ml/kg).
The blood samples were collected in fed state 1 hour after drug administration on 0 and 3 day of compound treatment. The blood was collected from the retro-orbital sinus through heparinised capillary in EDTA containing tubes. After centrifugation, plasma sample was separated for total cholesterol, HDL and triglyceride estimations. Measurement of plasma triglyceride, total cholesterol and HDL were done using commercial kits (Dr. Reddy's Laboratory, Diagnostic Division, India). LDL and VLDL cholesterol were calculated from the data obtained for total cholesterol, HDL and triglyceride. The reduction of various parameters examined are calculated according to the formula.
(§1) 1. Percent reduction in Blood sugar/triglycerides/total cholesterol were calculated according to the formula: [formula]
2. LDL and VLDL cholesterol levels were calculated according to the formula: [formula]
VLDL cholesterol in mg/dl=[Total cholesterol−HDL cholesterol−LDL cholesterol] mg/dl

The target of the next data set is T2, hPPARγ1 (Homo sapiens, UniProt P37231).
T2 construct: expressed in transfected cells; host or cells: HEK-293
T2 sequence (P37231 238-503 limits assumed): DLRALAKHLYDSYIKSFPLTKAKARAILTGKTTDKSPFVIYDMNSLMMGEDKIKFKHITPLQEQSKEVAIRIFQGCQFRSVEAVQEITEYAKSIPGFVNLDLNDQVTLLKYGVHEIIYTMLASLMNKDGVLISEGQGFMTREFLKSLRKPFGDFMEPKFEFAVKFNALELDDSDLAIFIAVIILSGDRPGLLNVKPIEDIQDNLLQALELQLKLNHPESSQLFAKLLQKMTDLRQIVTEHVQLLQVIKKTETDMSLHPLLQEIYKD
In words: Determination of hPPARγ activity (GAL4 fusion luciferase reporter, HEK-293 cells). Format: cell-based. To be noted: Concentration 1 μM. Here is the method: Ligand binding domain of hPPARγ1 was fused to DNA binding domain of Yeast transcription factor GAL4 in eucaryotic expression vector. Using lipofectamine (Gibco BRL, USA) as transfecting reagent HEK-293 cells were transfected with this plasmid and a reporter plasmid harboring the luciferase gene driven by a GAL4 specific promoter. Compound was added at 1 μM concentration after 48 hrs of transfection and incubated overnight. Luciferase activity as a function of drug binding/activation capacity of PPARγ was measured using Packard Luclite kit (Packard, USA) in Packard Top Count (Ivan Sadowski, Brendan Bell, Peter Broag and Melvyn Hollis. Gene. 1992. 118:137-141; Guide to Eukaryotic Transfections with Cationic Lipid Reagents. Life Technologies, GIBCO BRL, USA).

Data set [2] deals with Swiss albino mice and Guinea pigs. The data set can be described thus: Plasma triglyceride and total cholesterol lowering activity in Swiss albino mice and Guinea pigs. The class given is in vivo. The following applies: 3 mg/kg orally for 6 days; species of the table not stated (Swiss albino mice or Guinea pigs). Here is the method: Male Swiss albino mice (SAM) and male Guinea pigs were obtained from NIN and housed in DRF animal house. All these animals were maintained under 12 hour light and dark cycle at 25±1° C. Animals were given standard laboratory chow (NIN, Hyderabad, India) and water, ad libitum. SAM of 20-25 g body weight range and Guinea pigs of 500-700 g body weight range were used (Oliver, P., Plancke, M. O., Marzin, D., Clavey, V., Sauzieres, J and Fruchart, J. C. Effects of fenofibrate, gemfibrozil and nicotinic acid on plasma lipoprotein levels in normal and hyperlipidemic mice. Atherosclerosis. 1988. 70:107-114).
The test compounds were administered orally to Swiss albino mice at 0.3 to 30 mg/kg/day dose for 6 days. Control mice were treated with vehicle (0.25% Carboxymethylcellulose; dose 10 ml/kg). The test compounds were administered orally to Guinea pigs at 0.3 to 30 mg/kg/day dose for 6 days. Control animals were treated with vehicle (0.25% Carboxymethylcellulose; dose 5 ml/kg).
The blood samples were collected in fed state 1 hour after drug administration on 0 and 6 day of treatment. The blood was collected from the retro-orbital sinus through heparinised capillary in EDTA containing tubes. After centrifugation, plasma sample was separated for triglyceride and total cholesterol (Wieland, O. Methods of Enzymatic analysis. Bergermeyer, H. O., Ed., 1963. 211-214; Trinder, P. Ann. Clin. Biochem. 1969. 6:24-27). Measurement of plasma triglyceride, total cholesterol and HDL were done using commercial kits (Dr. Reddy's Diagnostic Division, Hyderabad, India).
as §1

The next data set deals with C57BL/KsJ-db/db mice. The data set can be described thus: Efficacy in genetic models: blood sugar and triglyceride lowering in db/db mice. To be noted: 3 mg/kg oral gavage daily for 6 days. Format: in vivo.
Source text: Mutation in colonies of laboratory animals and different sensitivities to dietary regimens have made the development of animal models with non-insulin dependent diabetes and hyperlipidemia associated with obesity and insulin resistance possible. Genetic models such as db/db and ob/ob (Diabetes, (1982) 31(1):1-6) mice and zucker fa/fa rats have been developed by the various laboratories for understanding the pathophysiology of disease and testing the efficacy of new antidiabetic compounds (Diabetes, (1983) 32:830-838; Annu. Rep. Sankyo Res. Lab. (1994). 46:1-57). The homozygous animals, C57 BL/KsJ-db/db mice developed by Jackson Laboratory, US, are obese, hyperglycemic, hyperinsulinemic and insulin resistant (J. Clin. Invest., (1990) 85:962-967), whereas heterozygous are lean and normoglycemic. In db/db model, mouse progressively develops insulinopenia with age, a feature commonly observed in late stages of human type II diabetes when blood sugar levels are insufficiently controlled. The state of pancreas and its course vary according to the models. Since this model resembles that of type II diabetes mellitus, the compounds of the present invention were tested for blood sugar and triglycerides lowering activities.
Male C57BL/KsJ-db/db mice of 8 to 14 weeks age, having body weight range of 35 to 60 grams, bred at Dr. Reddy's Research Foundation (DRF) animal house, were used in the experiment. The mice were provided with standard feed (National Institute of Nutrition (NIN), Hyderabad, India) and acidified water, ad libitum. The animals having more than 350 mg/dl blood sugar were used for testing. The number of animals in each group was 4.
Test compounds were suspended on 0.25% carboxymethyl cellulose and administered to test group at a dose of 0.001 mg to 30 mg/kg through oral gavage daily for 6 days. The control group received vehicle (dose 10 ml/kg). On 6th day the blood samples were collected one hour after administration of test compounds/vehicle for assessing the biological activity.
The random blood sugar and triglyceride levels were measured by collecting blood (100 μl) through orbital sinus, using heparinised capillary in tubes containing EDTA which was centrifuged to obtain plasma. The plasma glucose and triglyceride levels were measured spectrometrically, by glucose oxidase and glycerol-3-PO4 oxidase/peroxidase enzyme (Dr. Reddy's Lab. Diagnostic Division Kits, Hyderabad, India) methods respectively.
The blood sugar and triglycerides lowering activities of the test compound was calculated according to the formula described below.
as §1

Turning to `CCOC(Cc1ccc(OCCN2COc3ccccc3C2=O)cc1)C(=O)O` (racemic) [Example 3, (±) 2-Ethoxy-3-[4-[2-[4-oxo-3,4-dihydro-1,3-benzoxazin-3-yl]ethoxy]phenyl]propanoic Acid], the PPARα on hPPARα is given as 7. Besides, in data set [1] (0.3 mg/kg orally for 3 days), the “HDL↑ (%)” value was 110%, the “Total Cholesterol (%)↓” value was determined as 64%, the “Triglyceride (%)↓” value is listed as 62% and the “LDL↓ (%)” value is listed as 74%. Moreover, the “VLDL↓ (%)” value in data set [1] (0.3 mg/kg orally for 3 days) is 50%. At hPPARγ1, this molecule had a PPARγ of 11.
Take `CCOC(Cc1ccc(OCC2Nc3ccccc3C(=O)N2C)cc1)C(=O)OC` (racemic) [Example 19, (±)-Methyl 2-ethoxy-3-[4-[[3-methyl-4-oxo-1,2,3,4-tetrahydro-2-quinazolinyl]methoxy]phenyl]propanoate]: the “Triglyceride (%)↓” value in data set [2] came to 51%. Also, in the data set on C57BL/KsJ-db/db mice, the “Reduction in Blood Glucose Level (%)” value is 31% and the “Triglyceride Lowering (%)” value was determined as 62%.
For `CCOC(Cc1ccc(OCC2NC(=O)c3ccccc3N2)cc1)C(=O)O` (racemic) [Example 16, (±)-2-Ethoxy-3-[4-[[4-oxo-1,2,3,4-tetrahydro-2-quinazolinyl]methoxy]phenyl]propanoic Acid], in the data set on C57BL/KsJ-db/db mice, the “Reduction in Blood Glucose Level (%)” value is listed as 18% and the “Triglyceride Lowering (%)” value worked out at 13%.
`CCOC(Cc1ccc(OCC2NC(=O)c3cc(Cl)ccc3N2)cc1)C(=O)O` (racemic) [Example 18, (±)-2-Ethoxy-3-[4-[[6-chloro-4-oxo-1,2,3,4-tetrahydro-2-quinazolinyl]methoxy]phenyl]propanoic Acid]: the “Triglyceride (%)↓” value in data set [2] turned out to be 63%.
For the molecule `CCOC(Cc1ccc(OCCN2COc3ccccc3C2=O)cc1)C(=O)[O-].[Na+]` (racemic) [Example 4, (±)-Sodium 2-ethoxy-3-[4-[2-[4-oxo-3,4-dihydro-1,3-benzoxazin-3-yl]ethoxy]phenyl]propanoate], in data set [1] (3 mg/kg orally for 3 days), the “HDL↑ (%)” value came to 256%, the “Total Cholesterol (%)↓” value stood at 64%, the “Triglyceride (%)↓” value is 61% and the “LDL↓ (%)” value is 76%. Further, in data set [1] (3 mg/kg orally for 3 days), the “VLDL↓ (%)” value is 67%.
With `CCOC(Cc1ccc(OCCN2COc3ccccc3C2=O)cc1)C(=O)NC(CO)c1ccccc1` (stereo not shown) [Example 7], in data set [2], the “Triglyceride (%)↓” value is recorded as 61%.
In the case of `CCOC(Cc1ccc(OCCN2COc3ccccc3C2=O)cc1)C(=O)NC(CO)c1ccccc1` [Example 7a, [2R, N(1S)] 2-Ethoxy-3-[4-[2-[4-oxo-3,4-dihydro-1,3-benzoxazin-3-yl]ethoxy]phenyl]-N-(2-hydroxy-1-phenylethyl)propanamide], the melting point lay in the range of 64 to 68 °C.
For the molecule `CCOC(Cc1ccc(OCC2NC(=O)c3ccccc3O2)cc1)C(=O)O` (racemic) [Example 14, (±)-2-Ethoxy-3-[4-[[4-oxo-3,4-dihydro 1,3-benzoxazin-2-yl]methoxy]phenyl]propanoic Acid], in the data set with C57BL/KsJ-db/db mice, the “Reduction in Blood Glucose Level (%)” value is on record as 55% and the “Triglyceride Lowering (%)” value is on record as 46%.
